According to ChEMBL document CHEMBL6134844, “Development of Next-Generation Antimalarial Acridones with Radical Cure Potential” (J Med Chem, 2025):

What was measured:
[1] = Toxicity in CF1 mouse infected with asexual blood-stage (ABS) Plasmodium yoelii MRA-428 assessed as clinical toxicity at 0.3 to 30 mg/kg, po treated 24 hrs post infection measured after 4 days; format: organism-based; settings: in vivo, dose 0.3-30 mg/kg
[2] = Toxicity in CF1 mouse infected with asexual blood-stage (ABS) Plasmodium yoelii MRA-428 assessed as behavioural change at 0.3 to 30 mg/kg, po treated 24 hrs post infection measured after 4 days; format: organism-based; settings: in vivo, dose 0.3-30 mg/kg
[3] = test system: Plasmodium cynomolgi; experiment: Antiplasmodial activity against schizont Plasmodium cynomolgi B strain infected in Macaca mulatta hepatocytes incubated with sporozoite containing salivary gland homogenate obtained from dissected Anopheles dirus mosquitoes (infected with Plasmodium cynomolgi B strain) treatment started on day 4 post infection and continued daily for 4 days into fresh changed media until day 8 assessed as Liver stage (LS) activity by measuring radical cure mode by immunofluorescent staining analysis; format: functional, organism-based; settings: Hepatocyte
[4] = Selectivity index, ratio of CC50 for Macaca mulatta hepatocytes to IC50 for antiplasmodial activity against schizont Plasmodium cynomolgi B strain infected in Macaca mulatta hepatocytes incubated with sporozoite containing salivary gland homogenate obtained from dissected Anopheles dirus mosquitoes (infected with Plasmodium cynomolgi B strain) treatment started on day 4 post infection and continued daily for 4 days into fresh changed media until day 8 assessed as Liver stage (LS) activity by measuring prophylactic mode by immunofluorescent staining analysis; format: toxicity, cell-based; settings: rhesus monkey, read-out: Selectivity Index
[5] = test system: Plasmodium cynomolgi; experiment: Antiplasmodial activity against schizont Plasmodium cynomolgi B strain infected in Macaca mulatta hepatocytes incubated with sporozoite containing salivary gland homogenate obtained from dissected Anopheles dirus mosquitoes (infected with Plasmodium cynomolgi B strain) treatment started on day 4 post infection and continued daily for 4 days into fresh changed media until day 8 assessed as Liver stage (LS) activity by measuring prophylactic mode by immunofluorescent staining analysis; format: functional, organism-based; settings: Hepatocyte
[6] = test system: Plasmodium falciparum; experiment: Antiplasmodial activity against asexual blood-stage (ABS) ATV-resistant clinical isolate Plasmodium falciparum Tm90-C2B infected in human erythrocytes assessed as reduction in fluorescence measured after 72 hrs by Malaria SYBR Green I-based Fluorescence (MSF) assay; format: functional, organism-based; settings: Erythrocyte
[7] = Toxicity in CF1 mouse infected with asexual blood-stage (ABS) Plasmodium yoelii MRA-428 assessed as ruffled hair at 0.3 to 30 mg/kg, po treated 24 hrs post infection measured after 4 days; format: organism-based; settings: in vivo, 96 h, dose 0.3-30 mg/kg, time 4 day
[8] = Toxicity in CF1 mouse infected with asexual blood-stage (ABS) Plasmodium yoelii MRA-428 assessed as hunching at 0.3 to 30 mg/kg, po treated 24 hrs post infection measured after 4 days; format: organism-based; settings: in vivo, 96 h, dose 0.3-30 mg/kg, time 4 day
[9] = Selectivity index, ratio of CC50 for Macaca mulatta hepatocytes to IC50 for antiplasmodial activity against hypnozoite Plasmodium cynomolgi B strain infected in Macaca mulatta hepatocytes incubated with sporozoite containing salivary gland homogenate obtained from dissected Anopheles dirus mosquitoes (infected with Plasmodium cynomolgi B strain) treatment started on day 4 post infection and continued daily for 4 days into fresh changed media until day 8 assessed as Liver stage (LS) activity by measuring prophylactic mode by immunofluorescent staining analysis; format: toxicity, cell-based; settings: rhesus monkey, read-out: Selectivity Index
[10] = test system: Plasmodium cynomolgi; experiment: Antiplasmodial activity against hypnozoite Plasmodium cynomolgi B strain infected in Macaca mulatta hepatocytes incubated with sporozoite containing salivary gland homogenate obtained from dissected Anopheles dirus mosquitoes (infected with Plasmodium cynomolgi B strain) treatment started on day 4 post infection and continued daily for 4 days into fresh changed media until day 8 assessed as Liver stage (LS) activity by measuring prophylactic mode by immunofluorescent staining analysis; format: functional, organism-based; settings: Hepatocyte
[11] = mouse, microsomes, 1 h
[12] = test system: HepG2; experiment: Cytotoxicity against human HepG2 cells assessed as cell viability measured after 48 hrs by MTT assay; format: functional, cell-based; settings: HepG2, 48 h
[13] = test system: Plasmodium yoelii; experiment: In vivo antiplasmodial activity against asexual blood-stage (ABS) Plasmodium yoelii MRA-428 infected in 4-day suppression CF1 mouse model assessed as reduction in parasitemia treated 24 hrs post infection daily measured on day 4; format: functional
[14] = Toxicity in CF1 mouse infected with asexual blood-stage (ABS) Plasmodium yoelii MRA-428 assessed as weight loss at 0.3 to 30 mg/kg, po treated 24 hrs post infection measured after 4 days; format: organism-based; settings: in vivo, 96 h, dose 0.3-30 mg/kg, time 4 day
[15] = Toxicity in CF1 mouse infected with asexual blood-stage (ABS) Plasmodium yoelii MRA-428 assessed as hyperactivity at 0.3 to 30 mg/kg, po treated 24 hrs post infection measured after 4 days; format: organism-based; settings: in vivo, 96 h, dose 0.3-30 mg/kg, time 4 day
[16] = Toxicity in CF1 mouse infected with asexual blood-stage (ABS) Plasmodium yoelii MRA-428 assessed as lethargy at 0.3 to 30 mg/kg, po treated 24 hrs post infection measured after 4 days; format: organism-based; settings: in vivo, 96 h, dose 0.3-30 mg/kg, time 4 day
[17] = test system: Plasmodium cynomolgi; experiment: Antiplasmodial activity against hypnozoite Plasmodium cynomolgi B strain infected in Macaca mulatta hepatocytes incubated with sporozoite containing salivary gland homogenate obtained from dissected Anopheles dirus mosquitoes (infected with Plasmodium cynomolgi B strain) treatment started on day 4 post infection and continued daily for 4 days into fresh changed media until day 8 assessed as Liver stage (LS) activity by measuring radical cure mode by immunofluorescent staining analysis; format: functional, organism-based; settings: Hepatocyte
[18] = test system: Plasmodium falciparum; experiment: Antiplasmodial activity against asexual blood-stage (ABS) CQ-sensitive Plasmodium falciparum D6 infected in human erythrocytes assessed as reduction in fluorescence measured after 72 hrs by Malaria SYBR Green I-based Fluorescence (MSF) assay; format: functional, organism-based; settings: D6, Erythrocyte
[19] = test system: Plasmodium falciparum; experiment: Antiplasmodial activity against asexual blood-stage (ABS) MDR Plasmodium falciparum Dd2 infected in human erythrocytes assessed as reduction in fluorescence measured after 72 hrs by Malaria SYBR Green I-based Fluorescence (MSF) assay; format: functional, organism-based; settings: Dd2, Erythrocyte
[20] = test system: Hepatocyte; experiment: Cytotoxicity against Macaca mulatta hepatocytes assessed as cell viability measured after 48 hrs by MTT assay; format: toxicity, cell-based; settings: rhesus monkey, 48 h
[21] = human, microsomes, 1 h
[22] = Selectivity index, ratio of CC50 for Macaca mulatta hepatocytes to IC50 for antiplasmodial activity against schizont Plasmodium cynomolgi B strain infected in Macaca mulatta hepatocytes incubated with sporozoite containing salivary gland homogenate obtained from dissected Anopheles dirus mosquitoes (infected with Plasmodium cynomolgi B strain) treatment started on day 4 post infection and continued daily for 4 days into fresh changed media until day 8 assessed as Liver stage (LS) activity by measuring radical cure mode by immunofluorescent staining analysis; format: toxicity, cell-based; settings: rhesus monkey, read-out: Selectivity Index
[23] = Selectivity index, ratio of CC50 for Macaca mulatta hepatocytes to IC50 for antiplasmodial activity against hypnozoite Plasmodium cynomolgi B strain infected in Macaca mulatta hepatocytes incubated with sporozoite containing salivary gland homogenate obtained from dissected Anopheles dirus mosquitoes (infected with Plasmodium cynomolgi B strain) treatment started on day 4 post infection and continued daily for 4 days into fresh changed media until day 8 assessed as Liver stage (LS) activity by measuring radical cure mode by immunofluorescent staining analysis; format: toxicity, cell-based; settings: rhesus monkey, read-out: Selectivity Index
[24] = test system: Plasmodium yoelii; experiment: In vivo antiplasmodial activity against asexual blood-stage (ABS) Plasmodium yoelii MRA-428 infected in 4-day suppression CF1 mouse model assessed as reduction in parasitemia by measuring protection at 30 mg/kg, po treated 24 hrs post infection daily measured up to 28 days; format: functional, organism-based; settings: time <= 28.0 day

| SMILES | Activity [1] | Activity [2] | IC50 [3] [nM] | selectivity ratio at 96 h [4] | IC50 [5] [nM] | IC50 [6] [nM] | selectivity ratio at 96 h [9] | IC50 [10] [nM] | CLH [11] [µL/min/mg] | IC50 [12] [nM] | ED50 [13] [mg/kg] | ED90 [13] [mg/kg] | IC50 [17] [nM] | IC50 [18] [pM] | IC50 [19] [nM] | CC50 [20] [nM] | t1/2 [21] [h] | selectivity ratio at 96 h [22] | selectivity ratio at 96 h [23] | other results |
| --- | --- | --- | --- | --- | --- | --- | --- | --- | --- | --- | --- | --- | --- | --- | --- | --- | --- | --- | --- | --- |
| CCN(CC)CCCC(C)Nc1ccnc2cc(Cl)ccc12 (stereo not drawn) [CHLOROQUINE] | Non-toxic | Non-toxic | – | – | – | – | – | – | – | – | – | – | – | – | – | – | – | – | – | – |
| O=c1c2c([nH]c3ccc(Oc4ccc(OC(F)(F)F)cc4)cc13)CCCC2 | Non-toxic | Non-toxic | > 20000 | > 40 | 500 | 29.9 | > 5.25 | 3810 | 56.8 | > 200000 | 1.8 | 7.8 | > 20000 | 7550 | 13.3 | > 20000 | – | – | – | Activity [7]: Non-toxic; Activity [8]: Non-toxic; Activity [14]: Non-toxic; Activity [15]: Non-toxic; Activity [16]: Non-toxic |
| O=c1c2ccc(OCc3ccc(C(F)(F)F)cc3)cc2[nH]c2cc(Cl)cc(F)c12 | Non-toxic | Non-toxic | 810 | 15.2 | 140 | 34.9 | 3.33 | 640 | < 3.125 | 153000 | 0.32 | 1.42 | 910 | 0.052 | 0.182 | 2130 | > 1 | 2.63 | 2.34 | – |
| O=c1c2ccc(Oc3cccc(OC(F)(F)F)c3)cc2[nH]c2cc(Cl)cc(F)c12 | Non-toxic | Non-toxic | 16100 | > 667 | 30 | 8.6 | > 35.7 | 560 | 273 | > 200000 | 0.19 | 0.9 | > 20000 | 70 | 0.02 | > 20000 | – | > 1.24 | – | – |
| O=c1c2ccc(Oc3ccc(OC(F)(F)F)cc3)cc2[nH]c2cc(F)c(Cl)cc12 | Non-toxic | Non-toxic | 6550 | > 33.3 | 600 | 48.4 | > 48.8 | 410 | < 3.125 | > 200000 | – | 0.17 | > 20000 | 4380 | 4.35 | > 20000 | > 1 | > 3.05 | – | Activity [24]: Active; Out Of 4 - 3 Mouse Cured |
| O=c1c2ccc(OCc3ccc(OC(F)(F)F)cc3)cc2[nH]c2cc(Cl)cc(F)c12 | Non-toxic | Non-toxic | 280 | 10.4 | 80 | 30.4 | 1.76 | 470 | < 3.125 | 177000 | 0.1 | 0.55 | 470 | 0.041 | 0.128 | 830 | > 1 | 2.96 | 1.77 | – |
| CC(C)(C)OC(=O)N1CCC(Oc2ccc3c(=O)c4c(F)cc(Cl)cc4[nH]c3c2)C1 (stereo not drawn) | Non-toxic | Non-toxic | 960 | 176 | 70 | 113 | 18.4 | 670 | < 3.125 | > 2500 | 0.1 | 0.43 | 2480 | – | 0.183 | 12300 | > 1 | 12.8 | 4.96 | – |
| CC(C)(C)OC(=O)N1CCC(Oc2ccc3c(=O)c4c(F)cc(Cl)cc4[nH]c3c2)CC1 | Non-toxic | Non-toxic | 670 | 43.4 | 50 | 271 | 4.62 | 470 | 58.5 | 59900 | 0.34 | 0.72 | 1780 | 0.7 | 0.295 | 2170 | > 1 | 3.24 | 1.22 | – |
